Laboratory results taken from patent US4451477A, “Bendazac treatment of cataract” (Aziende Chimiche Riunite Angelini Francesco A.C.R.A.F. …, priority 1981, dated 1984).
Values joined by “and” are separate entries in the source; they are usually repeats but may differ in a detail not shown here. Equal entries are not always repeated. “Also recorded” adds a separate entry of the source. Structures can show the parent of a compound that is named as a salt. Where two headings read alike, the source gives them in different places.

How the values were obtained:
lens homogenate = assay: heat-induced denaturation of lens homogenate (60° C., 20 min, nephelometric); type: biochemical, rat; conditions: for % inhibition of heat-induced denaturation of lens homogenate: 60° C., 20 min, pH 7.5
Method: (§1) Experiments in vitro: A study was performed on both lens homogenates and intact lens. The opacification of this material was obtained by heating. For this purpose the same method as that already employed to study blood proteins was used (Silvestrini et al., 1968; Silvestrini et al., 1970) with some minor modifications which are reported below.
(§2) For the study of the homogenate, fresh rat lens were used which has been removed from the capsule, immersed in phosphate buffer (pH 7.5; 0.1M) in the volumetric ratio of 15:85 and then homogenated. The homogenate was then centrifuged (10 minutes at 4000 r.p.m.), the supernatant was collected and further diluted 1:1 with the above phosphate buffer, alone or containing bendazac at different concentrations. The solution thus obtained was heated at 60° C. for 20 minutes and the denaturation was assessed nephelometrically. As reference a comparison is made with the values obtained with bovine serum albumin (BSA) denaturation.
(§3) The experiment was repeated using different salts of bendazac including lithium, sodium, potassium, ammonium, organic bases (such as ethylenediamine, piperazine and diisopropylamine) and lysine. […] This experiment proves that the active ingredient is bendazac. The intact lens was studied by using fresh bovine lens which were kept for 2 hours in the phosphate buffer described above, either alone or containing bendazac at different concentrations. The lenses were then heated at 50° C. for 120 minutes; this procedure produced a clear-cut opacification in the subcapsular region. The degree of opacification was assessed blindly (the experimentor was unaware of the treatment), using a score from 0 to 4.

[1] = oral absorption in man, serum concentration after single oral administration; type: in vivo, human; conditions: for concentration at 2 h: human, serum
From the text: These blood levels appeared too low to obtain therapeutic activity.

cataract [2] = assay: first experiment: anti-cataract activity in 24 patients, oral; type: in vivo, human; set-up: key to Vision / Refraction / Slit-lamp and/or transillumin. / Overall Judgement: +: improvement; 0: no change; -: worsening
Method: (§4) A first experiment was conducted on 24 patients with different types of cataract (cortical; corticonuclear, posterior subcapsular). […] The experiment included an examination of vision, refraction and slit-lamp test; the investigator was asked to express an overall judgement. These evaluations were performed before the beginning of treatment, after 4 weeks and again at the end of treatment when prolonged. The lysine salt of bendazac was administered at the dose of 1500 mg (corresponding to […] of bendazac) divided into three daily administrations during meals. The average duration of treatment was 50.4 days with time limits from 28 to 86 days. The study group consisted of 11 females and 13 males with an average age of 59.5 (47-74). The effects of treatment are summarized in Table 3; the values obtained in each patient are illustrated instead in Table 4. For practical purposes the results are expressed as: improvement (+), no change (0), worsening (-).

cataract [3] = assay: eye drops instilled in 4 patients with cataract; type: in vivo, human; conditions: topical, eye drops 3 times daily for one month
Method: Finally, bendazac was administered in 4 patients in the form of eye drops containing 0.25% of the lysine salt of bendazac. Eye drops were instilled 3 times daily for one month.

cataract [4] = assay: second experiment: double blind placebo-controlled anti-cataract study in patients, oral; type: in vivo, human; set-up: key to Vision / Refraction / Overall Judgement / Slit-lamp / Transillumination: +: improvement; 0: no change; -: worsening
Method: as §4
As a result of these encouraging results we decided to repeat the experiment under double blind conditions comparing the lysine salt of bendazac with placebo. A total of 35 patients were used; 19 were treated with placebo and 16 with the lysine salt of bendazac. The experimental methods used were identical to those described in the first experiment except for the duration of treatment which was always 4 weeks.

[5] = cited from earlier work
blood proteins = conditions: literature; cited from earlier work
isolated bovine lenses = assay: heat-induced opacification of isolated intact bovine lenses (50° C., 120 min, blind score); conditions: same molar concentrations for salts
Method: as §1, §3
The test was repeated using the various salts of bendazac mentioned above and in this case also with the same molar concentrations the results obtained were identical to those observed with bendazac alone.

[6] = molecular target: bovine serum albumin (BSA) (Bos taurus, UniProt P02769); assay: heat-induced denaturation of bovine serum albumin (BSA); type: biochemical
Sequence of bovine serum albumin (BSA) (P02769 25-607): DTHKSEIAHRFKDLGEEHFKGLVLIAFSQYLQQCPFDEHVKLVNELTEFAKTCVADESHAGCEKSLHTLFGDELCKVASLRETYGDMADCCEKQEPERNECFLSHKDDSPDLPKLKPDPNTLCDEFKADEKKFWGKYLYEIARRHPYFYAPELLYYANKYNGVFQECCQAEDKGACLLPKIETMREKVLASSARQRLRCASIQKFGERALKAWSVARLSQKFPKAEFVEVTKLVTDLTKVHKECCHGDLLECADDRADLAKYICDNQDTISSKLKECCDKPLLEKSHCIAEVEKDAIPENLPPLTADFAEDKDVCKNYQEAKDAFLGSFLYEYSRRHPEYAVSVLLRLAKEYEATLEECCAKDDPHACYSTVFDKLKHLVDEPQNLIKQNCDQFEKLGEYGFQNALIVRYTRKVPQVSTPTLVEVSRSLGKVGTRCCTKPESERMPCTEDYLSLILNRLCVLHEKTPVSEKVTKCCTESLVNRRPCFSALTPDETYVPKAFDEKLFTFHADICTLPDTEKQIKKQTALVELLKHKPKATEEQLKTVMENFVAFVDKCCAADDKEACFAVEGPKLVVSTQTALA
Method: as §2, with “Experiments in vitro: A study was performed on both lens homogenates and intact lens. The opacification of this material was obtained by heating. For this purpose the same method as that already employed to study blood proteins was used (Silvestrini et al., 1968; Silvestrini et al., 1970) with some minor modifications which are reported below. For” for “For”

cataract [7] = conditions: literature, cited from earlier work
[8] = 24 patients, 1500 mg daily oral, Table 3 summary
[9] = individual patient, one per line of Table 4, 1500 mg daily oral, 28-86 days, (dihydrate)
[10] = 16 patients, 4 weeks, double blind, placebo (19) 1
[11] = 16 patients, 4 weeks, double blind, placebo (19) 2
[12] = 16 patients, 4 weeks, double blind, placebo (19) --
[13] = individual patient, one per line of Table 6, 4 weeks, oral, listed as bendazac L, (dihydrate)
[14] = drug molar concentration 5 × 10^-4

In the case of `O=C(O)COc1nn(Cc2ccccc2)c2ccccc12`, the “anti-denaturant effect on the lens homogenate compared with bendazac alone” value (lens homogenate; at the same molar concentrations) is reported as “the same anti-denaturant effect on the lens homogenate as that of bendazac alone”.
For `O=C(O)COc1nn(Cc2ccccc2)c2ccccc12` [lysine salt of bendazac, Salt of [(1-benzyl-1H-indazol-3-yl)oxy]acetic acid with L. lysine (dihydrate)], the concentration at 2 h ([1]; 2 hours after single oral administration of 500 mg lysine salt (= 303.8 mg bendazac), 6 volunteers, read-out: mean serum concentration) was 30000 ng/mL, the “oral absorption in man” value ([1]; lysine salt vs bendazac alone, (dihydrate)) was “good oral absorption; also recorded: better absorbed in man than bendazac alone” and the “Overall Judgement: improvement (+), number of patients” value (cataract [2]; [8]) was 18. For the same molecule, the “Overall Judgement: no change (0), number of patients” value (cataract [2]; [8]) was 5, the “Overall Judgement: worsening (-), number of patients” value (cataract [2]; [8]) was 1 and the “Refraction: improvement (+), number of patients” value (cataract [2]; [8]) was 10. For the same molecule, the “Refraction: no change (0), number of patients” value (cataract [2]; [8]) was 13, the “Refraction: worsening (-), number of patients” value (cataract [2]; [8]) was 1 and the “Slit-lamp and/or Transillum.: improvement (+), number of patients” value (cataract [2]; [8]) was 14. For the same molecule, the “Slit-lamp and/or Transillum.: no change (0), number of patients” value (cataract [2]; [8]) was 10, the “Vision: improvement (+), number of patients” value (cataract [2]; [8]) was 18 and the “Vision: no change (0), number of patients” value (cataract [2]; [8]) was 6. The “number of patients with improvement” value (cataract [2]; depending on the evaluation method) was 10-18 patients, the “number of patients with relatively poor results” value (cataract [2]; first experiment, 24 patients) was 5 patients and the “number of patients with worsening effect” value (cataract [2]; first experiment, 24 patients) was 1 patient. The “Overall Judgement” value (cataract [2]; [9]) was “+ and - and 0”, the Refraction (cataract [2]; [9]) was “+ and 0 and -” and the Slit-lamp and/or transillumin. (cataract [2]; [9]) was “+ and 0”. For the same molecule, the Vision (cataract [2]; [9]) was “+ and 0”, the “effect on cataract” value (cataract [3]) was “induces a regression of the disease” and the “Overall Judgement: worsening (-), number of patients” value (cataract [4]; 16 patients, 4 weeks, double blind) was 2. The “Overall Judgement: improvement (+), number of patients” value (cataract [4]; [10]) was 11, the “Refraction: improvement (+), number of patients” value (cataract [4]; [10]) was 9 and the “Transillumination: no change (0), number of patients” value (cataract [4]; [10]) was 2. For the same molecule, the “Vision: improvement (+), number of patients” value (cataract [4]; [10]) was 10, the “Overall Judgement: no change (0), number of patients” value (cataract [4]; [11]) was 3 and the “Slit-lamp: no change (0), number of patients” value (cataract [4]; [11]) was 2. The “Vision: no change (0), number of patients” value (cataract [4]; 16 patients, 4 weeks, double blind, placebo (19) 6) was 6, the “Slit-lamp: worsening (-), number of patients” value (cataract [4]; 16 patients, 4 weeks, double blind, placebo (19) 9) was 1 and the “Refraction: no change (0), number of patients” value (cataract [4]; 16 patients, 4 weeks, double blind, placebo (19) 12) was 7. The “Slit-lamp: improvement (+), number of patients” value (cataract [4]; [12]) was 10, the “Transillumination: improvement (+), number of patients” value (cataract [4]; [12]) was 4 and the “Overall Judgement” value (cataract [4]; [13]) was 0 and + and -. For the same molecule, the Refraction (cataract [4]; [13]) was 0 and +, the Slit-lamp (cataract [4]; [13]) was “+ and 0 and -” and the Transillumination (cataract [4]; [13]) was “+ and 0”. The Vision (cataract [4]; [13]) was 0 and + and the “effect on cataract” value (cataract [4]; oral administration, patients, (dihydrate)) was “healing effect on cataract; also recorded: induces a regression of the disease”.
For `O=C(O)COc1nn(Cc2ccccc2)c2ccccc12` [bendazac, [(1-benzyl-1H-indazol-3-yl)oxy]acetic acid], the “oral absorption in humans” value ([5]; Silvestrini et al.) is listed as “rather low; also recorded: too low”, the blood levels ([5]; following 8 days of treatment at increasing doses from 150 to 900 mg daily, humans) is listed as 8 µg and the concentration at 2 h ([1]; 300 mg of bendazac alone, oral, under the same conditions, read-out: serum levels) is listed as 8000 ng/mL. The “anti-denaturant activity on proteins” value (blood proteins) was “very specific anti-denaturant activity on some blood proteins”, the “protective effect on lens opacification in vitro (words)” value (isolated bovine lenses) was “protective action in vitro with respect to lens opacification” and the “protective effect on lens opacification in vitro (words)” value (isolated bovine lenses; listed as Bendazac) was “clearcut protective effect on this experimentally induced cataract”. For the same molecule, the inhibition at 500 µM [6, 14] was 47%, the inhibition at 1000 µM ([6]; drug molar concentration 10^-3) was 60% and the inhibition at 100 µM ([6]; drug molar concentration 10^-4) was 12%. For the same molecule, the “protective effect on heat-induced denaturation of lens homogenate” value (lens homogenate; compared with BSA) was “prevents heat-induced denaturation of lens homogenate and that this protective effect is similar to that observed with BSA”, the “% inhibition of heat-induced denaturation of lens homogenate” value (“% inhibition” for short) (lens homogenate; [14]) was 32% and the “% inhibition” value (lens homogenate; drug molar concentration 10^-3) was 68%. For the same molecule, the “% inhibition” value (lens homogenate; drug molar concentration 10^-4) was 18%.
In the case of `CC(=O)Oc1ccccc1C(=O)O` [aspirin, acetylsalicylic acid], the “effect on cataract development (words)” value (cataract [7]) is given as “possible slowdown in cataract development” and the “effect on cataract development (words)” value (cataract [7]; listed as acetylsalicylic acid) is given as “delays the development of cataract but does not determine its regression”.
For `O=C(O)c1cc(O)c2c3nc4ccccc4oc-3cc(=O)c2n1` [Catalin, 1-hydroxy-5-oxo-5H-pyrido[3,2-a]phenoxazino-3-carboxylic acid], the “effect on cataract development (words)” value (cataract [7]) is listed as “possible slowdown in cataract development”.
